# Literature values in patent US20020010550A1, “PHARMACOKINETIC-BASED DRUG DESIGN TOOL AND METHOD” (priority 1998, published 2002).
# Where two headings read alike, the source gives them in different places.
# Experiments:
# [1] = Plasma Kinetics
# [2] = human
# [3] = test system: rabbit intestinal tissue (duodenum, jejunum, ileum, colon); settings: donor concentration given with each compound
# [4] = test system: intestinal transport; settings: permeability standards
Fluid Volume [1],k12 [1],k21 [1],kelim [1],"bioavailability of fasted patients in clinical trials ([2]; fasted, oral)",absorption ([2]; in vivo),in vivo biotransformation ([2]; in vivo),Pe ([3]; Colon),Pe ([3]; Duodenum),Pe ([3]; Ileum),Pe ([3]; Jejunum),Transport mechanism [4],SMILES
"76,800 ml",0.839,0.670,0.161,3-20%,poorly absorbed,no in vivo biotransformation,–,–,–,–,–,"Nc1nc2c(ncn2COC(CO)CO)c(=O)[nH]1.[Na] [Gancyclovir, 9-(1,3-dihydroxy-2-propoxymethyl)guanine, monosodium salt]"
–,–,–,–,–,–,–,9.28 ×10⁻⁶ cm/s,4.55 ×10⁻⁶ cm/s,14.5 ×10⁻⁶ cm/s,10.2 ×10⁻⁶ cm/s,Carrier-mediated Influx,O=C[C@H](O)[C@@H](O)[C@H](O)[C@H](O)CO [D-glucose]
–,–,–,–,–,–,–,3.85 ×10⁻⁶ cm/s,0.3 ×10⁻⁶ cm/s,2.91 ×10⁻⁶ cm/s,1.31 ×10⁻⁶ cm/s,–,C[C@]12CCC(=O)C=C1CC[C@@H]1[C@@H]2[C@@H](O)C[C@@]2(C)[C@H]1CC[C@]2(O)C(=O)CO [hydrocortisone]
–,–,–,–,–,–,–,5.53 ×10⁻⁶ cm/s,1.73 ×10⁻⁶ cm/s,4.02 ×10⁻⁶ cm/s,3.54 ×10⁻⁶ cm/s,Passive Paracellular,OC[C@@H](O)[C@@H](O)[C@H](O)[C@H](O)CO [mannitol]
